# Assay results taken from PMC5164911, “Comparative Analysis of the Interaction between Different Flavonoids and PDIA3” (Oxidative Medicine and Cellular Longevity, 2016).
# Like-named read-outs stand apart in the source and are kept apart here.
# Tests used:
# [1] = biological target: T1, PDIA3 (Homo sapiens, UniProt P30101); experiment: Fluorescence quenching titration of PDIA3 intrinsic fluorescence; format: binding; conditions: for Stern-Volmer constant (K SV): 0.5∗10^−6 M PDIA3 in reduced conditions, pH 7.4, 25°C, flavonoid 0 to 10∗10^−6 M, mean and standard deviation; for bimolecular quenching rate constant (K q): K SV = K q τ0 with τ0 of the order of 10^−8 s; for binding constant (K b): equation of Bi et al., reiterative calculation of Sun et al.
# T1 construct: made in house; host or cells: E. coli BL21 (vector pET21)
# T1 sequence (P30101 25-505): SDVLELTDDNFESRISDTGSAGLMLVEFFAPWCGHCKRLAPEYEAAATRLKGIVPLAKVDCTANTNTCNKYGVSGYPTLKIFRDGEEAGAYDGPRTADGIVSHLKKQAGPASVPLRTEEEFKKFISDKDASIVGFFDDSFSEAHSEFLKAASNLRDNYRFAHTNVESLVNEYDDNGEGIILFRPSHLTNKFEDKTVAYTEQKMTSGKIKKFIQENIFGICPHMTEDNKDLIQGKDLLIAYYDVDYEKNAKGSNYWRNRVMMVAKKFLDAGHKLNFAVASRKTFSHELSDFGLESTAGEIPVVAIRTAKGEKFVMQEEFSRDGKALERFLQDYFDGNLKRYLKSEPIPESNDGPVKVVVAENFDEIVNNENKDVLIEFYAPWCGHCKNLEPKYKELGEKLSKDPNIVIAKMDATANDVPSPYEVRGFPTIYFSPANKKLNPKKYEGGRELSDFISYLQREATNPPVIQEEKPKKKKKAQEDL
# Protocol: Quantitative analysis of the interaction between individual flavonoids and PDIA3 was performed by fluorimetric titration. […] Briefly, solution of PDIA3 (0.5 μM) or a and a′ domains (1 μM) in phosphate buffered saline (PBS) containing DTT 0.1 mM and EDTA 0.2 mM were titrated in quartz cuvette by stepwise additions, at 5 min time intervals, of individual flavonoid solution (1 mM in PBS/ethanol 50 : 50 v/v freshly prepared from a 20 mM stock solution in DMSO). […] To minimize the inner-filter effect we limited the highest concentration reached in the titration test up to 10 μM. All experiments were carried out at 25°C. Each spectrum was the mean of three repeated scans. Fluorescence spectra of appropriate blanks (flavonoids without proteins) were recorded under the same experimental conditions and subtracted from the corresponding flavonoid-protein system to correct the fluorescence background.
# Quenching analysis was performed on PDIA3 (0.5 μM), in the reduced form, by adding stepwise increasing concentration of each molecule and recording the protein fluorescence spectra. For some flavonoids the analysis was extended to isolate a′ domain (1 μM), always in the reduced form. […] For each ligand molecule the Stern-Volmer quenching constant was obtained by linear regression of plots of F 0/F versus [L].
# The Stern-Volmer quenching constant may be expressed as K SV = K q τ 0, where K q is the quencher rate coefficient and τ 0 is the average lifetime of the emissive excited state of the protein in the absence of the quencher.
# The number of binding sites (n) and the binding constant (K b) were obtained by plotting log((F 0 − F)/F) versus log(1/([L t] − n(F 0 − F)[P t]/F 0)) using the reiterative calculation process described by Sun et al., assuming a similar affinity for each binding site.
# [2] = biological target: T1, PDIA3; experiment: Disulfide reductase activity with DiE-GSSG fluorogenic probe; format: biochemical; conditions: DiE-GSSG substrate; for Inhibition of disulfide reductase (redox) activity: 20 μM flavonoid (Figure 7)
# Protocol: Disulfide reductase activity of ERp57 was monitored by sensitive fluorescent assay using dieosin glutathione disulfide (DiE-GSSG) as fluorogenic probe. DiE-GSSG was synthesized by the reaction of eosin isothiocyanate with oxidized glutathione (GSSG) according to the method of Raturi and Mutus with some modifications. DiE-GSSG concentration was determined spectrophotometrically (ℇ 525 = 88,000 M^-1 cm^−1). Disulfide reductase activity was assayed in a reaction buffer containing 2 mM EDTA, 150 nM DiE-GSSG, and 5 μM DTT in PBS. A 20 μl aliquot of a stock solution of PDIA3 (1 μM) was added to the reaction mixture and DiE-GSSG reduction was monitored at 545 nm with excitation at 520 nm, at 25°C with continuous stirring. Reductase activity was calculated as the initial velocity in fluorescence increase. To test the effect of flavonoids on PDIA3 activity, the protein stock solution was previously incubated for 15 minutes at room temperature with different concentrations of each flavonoid and then a 20 μl aliquot subjected to assay in a reaction buffer containing the same concentration of the flavonoid.
# Fluorescence quenching constant (K SV) values were given as means ± standard deviation and values of disulfide reductase activity were expressed in % of control sample ± relative standard deviation. All measurements were performed at least three times. Dunnett's test was used to compare the obtained reductase activity data with the activity of the untreated protein and a p value of <0.01 was considered as statistically significant.
# [3] = K d = 1/K b, reduced PDIA3, pH 7.4, 25°C, read-out: dissociation constant (K d)
Compound,Stern-Volmer constant (K SV) [1],"Kd ([1]; Figure 8, no unit printed in the picture, read-out: Dissociation constant (Kd))","bimolecular quenching rate constant (K q) ([1]; reduced PDIA3, pH 7.4, 25°C)","Kd [1, 3]","binding constant (K b) ([1]; reduced PDIA3, pH 7.4, 25°C)",Inhibition of disulfide reductase (redox) activity [2],Inhibition of disulfide reductase (redox) activity ([2]; listed as eupatorin),Effect on disulfide reductase activity (in words) [2]
"COc1ccc(-c2cc(=O)c3c(O)c(OC)c(OC)cc3o2)cc1O [Eupatorin, eupatorin]",89362 ± 688 M⁻¹,10.3 µM,8.94e+12 M⁻¹ s⁻¹,10.3 µM,96700 M⁻¹,40%,up to 40%,noticeable inhibitory effect
"O=c1cc(-c2ccc(O)cc2)oc2cc(O)cc(O)c12 [Apigenin, apigenin]",54332 ± 1185 M⁻¹,,5.43e+12 M⁻¹ s⁻¹,17 µM,58700 M⁻¹,,,no evident effect
"COc1ccc(-c2cc(=O)c3c(OC)c(OC)c(OC)cc3o2)cc1O [Eupatorin-5-methyl ether, eupatorin-5-methyl-ether]",90016 ± 1875 M⁻¹,,9e+12 M⁻¹ s⁻¹,11.1 µM,90400 M⁻¹,up to 40%,,noticeable inhibitory effect
